Like-named read-outs stand apart in the source and are kept apart here.
Key:
[1] = Oral exposure in cynomolgus monkeys, compound alone or with excipient in capsules; plasma by LC-MS/MS; assay type: in vivo; settings: for Oral bioavailability using calcium chelating excipients: cynomolgus monkeys, capsules, versus compound alone
Text: The influence of different excipients on the bioavailability of Compound (Ia), Compound 2 and Compound 3 in cynomolgus monkeys was investigated. The excipients tested were sodium phytate, sodium citrate, sodium EDTA, cyclodextrin, sodium taurocholate, sodium polystyrene sulfate, sodium caprate, sodium phosphate, carbomer 971P and palmitoyl carnitine chloride. Generally, an appropriate quantity (as indicated in Table 1) of Compound (Ia), Compound 2 or Compound 3 and an excipient were mixed to homogeneity and transferred to capsules for dosing. In one example, Compound (Ia) (500 mg assay, 1.063 correction factor applied for to account for purity) and 2.75 g of sodium phytate (Sigma) were combined in a mortar and pestle. The mixture was ground to homogeneity then 530 mg of the white powder was transferred to enteric capsules (Size 0) prior to dosing.
[…] Compound (Ia), Compound 2 or Compound 3, either alone, or with excipient, in an enteric capsule was administered via an oral pet piller. Blood samples were collected from a peripheral vessel at designated time points, and centrifuged to obtain plasma.
(§1) Plasma samples obtained at each time point from the subjects were prepared by protein precipitation. An aliquot of 50 μL sample was added with 150 μL acetonitrile containing an internal standard ([[[(2R,3S,4R,5R)-5-[6-chloro-4-[[(1S)-2,2,2-trideuterio-1-(2-fluorophenyl)ethyl]amino]pyrazolo[3,4-b]pyridin-1-yl]-3,4-dihydroxyoxolan-2-yl]-dideuteriomethoxy]-hydroxyphosphoryl]methylphosphonic acid, 200 ng/mL in Acetonitrile). The mixture was vortexed for 15 min and then centrifuged at 4500 rpm for 15 min at 4° C. (Sorvall Legend XTR centrifuge, Thermo Scientific, Langenselbold, Germany). 80 μL of the resulting supernatant was transferred into a new plate and mixed with 160 μL water followed by LC-MS/MS analysis.
(§2) • API 4000 mass spectrometer (Applied Biosystems, Foster City, Calif.) • Shimadzu Nexera X^2 UHPLC System (Shimadzu Scientific Instruments, Canby, Oreg.) Column: SHISEIDO CAPCELL PAK INERT ADME S3 (2.00 mm×50 mm, Part No. 79001) Mobile Phase A: 8.6 mM Triethylamine, 100 mM HFIP (1,1,1,3,3,3-Hexafluoro-2-propanol) in Water Mobile Phase B: 8.6 mM Triethylamine, and 100 mM HFIP in [Acetonitrile:water (95:5, v/v) Needle wash (weak & strong): Acetone:MeCN:Water (80:20:20, v/v/v) Flow Rate: 0.50 mL/min HPLC Gradient:
• Ionization Mode: Electrospray (ESI) • Detection Mode: Negative MRM (Q1/Q3 transitions: m/z 579.0/157.0 for Compound (Ia) or Compound 3; m/z 584.0/157.0 for Internal Standard); (Q1/Q3 transitions m/z 562.2/157.0 for Compound 2; m/z 584.0/157.0 for Internal Standard)

[2] = Oral bioavailability in male Sprague-Dawley rats, compound alone or with excipient in water pH 8 by oral gavage; plasma by LC-MS/MS; assay type: in vivo; settings: for Bioavailability (% F): oral gavage
Protocol: The influence of different excipients on the bioavailability of Compound 2 was investigated in Sprague Dawley rats. The excipients tested were Solutol HS 15, soy L-α-phosphatidylcholine, trisodium citrate, sodium caprate, disodium EDTA, and sodium phytate. Generally, 10-30 mg of Compound 2 and the indicated quantity (Table 5) of excipient was combined and dissolved in 5 mL water. The pH was adjusted to a pH of 8 using HCl or NaOH as needed.
Male Sprague-Dawley rats, weighing between 0.27 to 0.32 kg, were fasted overnight prior to dose administration through approximately 4 hours post-dose. Compound 2 was administered orally by orogastric gavage at 5 mL/kg. Blood samples were collected via femoral vein at designated time points, and centrifuged to obtain plasma.
as §1, with “([(2R,3S,4R,5R)-5-[2-chloro-6-(cyclopentylmethylamino)purin-9-yl]-3,4-dihydroxyoxolan-2-yl]methoxymethylphosphonic” for “([[[(2R,3S,4R,5R)-5-[6-chloro-4-[[(1S)-2,2,2-trideuterio-1-(2-fluorophenyl)ethyl]amino]pyrazolo[3,4-b]pyridin-1-yl]-3,4-dihydroxyoxolan-2-yl]-dideuteriomethoxy]-hydroxyphosphoryl]methylphosphonic”
as §2, with “(1,1 1,3,3,3-Hexafluoro-2-propanol)” for “(1,1,1,3,3,3-Hexafluoro-2-propanol)”, “Acetone: MeCN: Water” for “Acetone:MeCN:Water”, “mL/min” for “mL/min HPLC Gradient:”
• Ionization Mode: Electrospray (ESI) • Detection Mode: Negative MRM (Q1/Q3 transitions: m/z 562.2/157.0 for Compound 2; m/z 584.0/157.0 for Internal Standard)

[3] = male, cynomolgus monkey, plasma, po, 50 mg, Table 3: dose 50 mg, dosed with 195 mg trisodium citrate and 3 mg SDS, enteric capsules
[4] = male, cynomolgus monkey, plasma, po, 50 mg, Table 3: dose 50 mg, dosed with 195 mg trisodium citrate and 3 mg SDS, enteric capsules, read-out: Cmax
[5] = male, cynomolgus monkey, plasma, po, 50 mg, Table 4: dose 50 mg, dosed with 275 mg sodium phytate, enteric capsules
[6] = male, cynomolgus monkey, plasma, po, 50 mg, Table 4: dose 50 mg, dosed with 275 mg sodium phytate, enteric capsules, read-out: Cmax
[7] = oral, enteric capsule, dose 50 mg, with 275 mg sodium phytate (Sigma-Aldrich, ≥5 mol sodium/mol), fasted
[8] = male, cynomolgus monkey, plasma, po, 50 mg, enteric capsule, with 195 mg sodium citrate, 3 mg SDS, fasted
[9] = male, cynomolgus monkey, plasma, po, 50 mg, enteric capsule, with 275 mg sodium phytate (Sigma-Aldrich, ≥5 mol sodium/mol), fasted
[10] = male, cynomolgus monkey, plasma, po, 50 mg, oral, enteric capsule, dose 50 mg, with 195 mg sodium citrate, 3 mg SDS, fasted, read-out: Cmax
[11] = male, cynomolgus monkey, plasma, po, 50 mg, oral, enteric capsule, dose 50 mg, with 275 mg sodium phytate (Sigma-Aldrich, ≥5 mol sodium/mol), fasted, read-out: Cmax

For C[C@H](Nc1cc(Cl)nc2c1cnn2[C@@H]1O[C@H](COP(=O)(O)CP(=O)(O)O)[C@@H](O)[C@H]1O)c1ccc(F)cc1 [Compound 3], the “Oral bioavailability using calcium chelating excipients” value [1] was “Improved”, the AUC(0-inf) [1, 3] was 38700 ng·h/mL and the Cmax [1, 4] was 1320 ng/mL. It also gave an AUC(0-inf) [1, 5] of 149000 ng·h/mL and a Cmax [1, 6] of 3550 ng/mL.
For C[C@H](Nc1cc(Cl)nc2c1cnn2[C@@H]1O[C@H](COP(=O)(O)CP(=O)(O)O)[C@@H](O)[C@H]1O)c1ccccc1F [Compound (Ia), (((((2R,3S,4R,5R)-5-(6-chloro-4-(((S)-1-(2-fluorophenyl)ethyl)amino)-1H-pyrazolo[3,4-b]pyridin-1-yl)-3,4-dihydroxytetrahydrofuran-2-yl)methoxy)(hydroxy)phosphoryl)methyl)phosphonic acid], the “Oral bioavailability using calcium chelating excipients” value [1] was “Improved”, the AUC(0-inf) [1, 3] was 22200 ng·h/mL and the Cmax [1, 4] was 922 ng/mL. The AUC(0-inf) [1, 5] was 122000 ng·h/mL and the Cmax [1, 6] was 3680 ng/mL.
With C[C@H](Nc1nc(Cl)nc2c1cnn2[C@@H]1O[C@H](COP(=O)(O)CP(=O)(O)O)[C@@H](O)[C@H]1O)c1ccccc1 [2 (Neutral)] the AUC(0-inf) ([1]; male, cynomolgus monkey, plasma, po, 50 mg, enteric capsule, with 195 mg sodium citrate, 6 mg sodium dodecyl sulfate (SDS), fasted) was 129000 ng·h/mL, the AUC(0-inf) ([1]; male, cynomolgus monkey, plasma, po, 50 mg, gelatin capsule, with 195 mg sodium citrate, 6 mg SDS, fasted) was 151000 ng·h/mL and the Cmax ([1]; male, cynomolgus monkey, plasma, po, 50 mg, oral, enteric capsule, dose 50 mg, with 195 mg sodium citrate, 6 mg sodium dodecyl sulfate (SDS), fasted, read-out: Cmax) was 3140 ng/mL. The Cmax ([1]; male, cynomolgus monkey, plasma, po, 50 mg, oral, gelatin capsule, dose 50 mg, with 195 mg sodium citrate, 6 mg SDS, fasted, read-out: Cmax) was 3180 ng/mL.
With C[C@H](Nc1nc(Cl)nc2c1cnn2[C@@H]1O[C@H](COP(=O)(O)CP(=O)(O)O)[C@@H](O)[C@H]1O)c1ccccc1 [Compound 2] the “Oral bioavailability using calcium chelating excipients” value [1] was “Improved”, the AUC(0-inf) [1, 3] was 67100 ng·h/mL and the Cmax [1, 4] was 2530 ng/mL. For the same compound, the AUC(0-inf) [1, 5] was 105000 ng·h/mL, the Cmax [1, 6] was 2320 ng/mL and the “Oral bioavailability using calcium chelating excipients” value ([2]; SD rats, 10-30 mg/kg + excipient in water at pH 8 via oral gavage, 5 mL/kg) was “Improved”. The “Bioavailability (% F)” value ([2]; 10 mg/kg, excipient: Sodium phytate (Sigma) 165 mg/SDS 2 mg) was 2.0 % F, the “Bioavailability (% F)” value ([2]; 10 mg/kg, excipient: Sodium phytate (Sigma, ≥5 mol sodium/mol) 165 mg) was 2.3 % F and the “Bioavailability (% F)” value ([2]; 10 mg/kg, excipient: Trisodium citrate 64.5 mg/sodium caprate 49 mg) was 0.23 % F. For the same compound, the “Bioavailability (% F)” value ([2]; 30 mg/kg, excipient (mg/kg): Solutol HS 15, 1,500) was 0.015 % F, the “Bioavailability (% F)” value ([2]; 30 mg/kg, excipient: Disodium EDTA 5 mg) was 0.60 % F and the “Bioavailability (% F)” value ([2]; 30 mg/kg, excipient: Disodium EDTA 20 mg) was 2.8 % F. For the same compound, the “Bioavailability (% F)” value ([2]; 30 mg/kg, excipient: None) was 0.03 % F, the “Bioavailability (% F)” value ([2]; 30 mg/kg, excipient: Soy L-α-phosphatidylcholine 150 mg) was 0.07 % F and the “Bioavailability (% F)” value ([2]; 30 mg/kg, excipient: Trisodium citrate 20 mg) was 0.10 % F. The “Bioavailability (% F)” value ([2]; 30 mg/kg, excipient: Trisodium citrate 64.5 mg) was 0.60 % F.
With C[C@H](Nc1cc(Cl)nc2c1cnn2[C@@H]1O[C@H](COP(=O)(O)CP(=O)(O)O)[C@@H](O)[C@H]1O)c1ccccc1F [Ia (Neutral), (((((2R,3S,4R,5R)-5-(6-chloro-4-(((S)-1-(2-fluorophenyl)ethyl)amino)-1H-pyrazolo[3,4-b]pyridin-1-yl)-3,4-dihydroxytetrahydrofuran-2-yl)methoxy)(hydroxy)phosphoryl)methyl)phosphonic acid] the “Exposure Enhancement” value ([1]; oral, enteric capsule, dose 50 mg, with 275 mg sodium phytate (Sigma-Aldrich), relative to 50 mg Ia ( 3Na) without absorption enhancer) was 7.6-fold^b, the “AUC0-∞” value [1, 7] was 102,000 h*ng/mL and the Cmax [1, 7] was 2,790 ng/mL.
In the case of C[C@H](Nc1cc(Cl)nc2c1cnn2[C@@H]1O[C@H](COP(=O)(O)CP(=O)(O)O)[C@@H](O)[C@H]1O)c1ccc(F)cc1 [3 ( 3Na)], the AUC(0-inf) [1, 8] is reported as 38700 ng·h/mL, the AUC(0-inf) [1, 9] is reported as 149000 ng·h/mL and the Cmax [1, 10] is reported as 1320 ng/mL. It also gave a Cmax [1, 11] of 3550 ng/mL.
With C[C@H](Nc1nc(Cl)nc2c1cnn2[C@@H]1O[C@H](COP(=O)(O)CP(=O)(O)O)[C@@H](O)[C@H]1O)c1ccccc1 [2 (Na)] the AUC(0-inf) ([1]; male, cynomolgus monkey, plasma, po, 10 mg, enteric capsule, neat, fasted) was 918 ng·h/mL, the AUC(0-inf) ([1]; male, cynomolgus monkey, plasma, po, 10 mg, enteric capsule, with 195 mg sodium citrate, 3 mg SDS, fasted) was 4880 ng·h/mL and the AUC(0-inf) ([1]; male, cynomolgus monkey, plasma, po, 10 mg, enteric capsule, with 195 mg sodium citrate, fasted) was 8840 ng·h/mL. For the same compound, the AUC(0-inf) ([1]; male, cynomolgus monkey, plasma, po, 10 mg, enteric capsule, with 275 mg sodium phytate (Sigma-Aldrich), fasted) was 6010 ng·h/mL, the Cmax ([1]; male, cynomolgus monkey, plasma, po, 10 mg, oral, enteric capsule, dose 10 mg, neat, fasted, read-out: Cmax) was 161 ng/mL and the Cmax ([1]; male, cynomolgus monkey, plasma, po, 10 mg, oral, enteric capsule, dose 10 mg, with 195 mg sodium citrate, 3 mg SDS, fasted, read-out: Cmax) was 997 ng/mL. It also gave a Cmax ([1]; male, cynomolgus monkey, plasma, po, 10 mg, oral, enteric capsule, dose 10 mg, with 195 mg sodium citrate, fasted, read-out: Cmax) of 791 ng/mL, a Cmax ([1]; male, cynomolgus monkey, plasma, po, 10 mg, oral, enteric capsule, dose 10 mg, with 275 mg sodium phytate (Sigma-Aldrich), fasted, read-out: Cmax) of 824 ng/mL and an AUC(0-inf) [1, 8] of 67100 ng·h/mL. The AUC(0-inf) [1, 9] was 105000 ng·h/mL, the Cmax [1, 10] was 2530 ng/mL and the Cmax [1, 11] was 2320 ng/mL. The “Exposure Enhancement” value ([1]; oral, enteric capsule, dose 10 mg, with 195 mg sodium citrate, 3 mg SDS, relative to 10 mg dose of 2(Na) without absorption enhancer) was 5.3-fold^e, the “Exposure Enhancement” value ([1]; oral, enteric capsule, dose 10 mg, with 195 mg sodium citrate, relative to 10 mg dose of 2(Na) without absorption enhancer) was 9.6-fold^e and the “Exposure Enhancement” value ([1]; oral, enteric capsule, dose 10 mg, with 275 mg sodium phytate (Sigma-Aldrich), relative to 10 mg dose of 2(Na) without absorption enhancer) was 6.6-fold^e.

— patent US11633416B1, “Oral formulations of CD73 compounds” (ARCUS BIOSCIENCES, INC., priority 2020, dated 2023)
